Assay results as given in patent US20170029355A1, “LABILE ESTERS OF AGROCHEMICALS FOR CONTROLLED RELEASE AND REDUCTION OF OFF-SITE MOVEMENT” (Monsanto Technology LLC, priority 2011, published 2017).

How the values were obtained:
[1] = In vitro dicamba photo-release from photo-labile dicamba esters, tetrahydrofuran solvent (Example 26); format: physicochemical; conditions: THF, 0.1 mM ester
Description: This Example describes in vitro testing of dicamba photo-release by homogeneous solutions of photo-labile dicamba esters. The esters were dissolved in tetrahydrofuran (THF). Ester concentration was 0.1 mM. 25 ml of the solution was transferred to 22 mm tubes fabricated from graded seal quartz tubing with a 19/22 tapered seal at the top, which was closed with a tapered glass plug and secured with a plastic ring clamp. The solution was entirely below the quartz-to-glass transition, ensuring that the entire volume was exposed to the full spectrum.
The sealed tubes were placed in a Growth Chamber where they were exposed to simulated sunlight for 14 hours per day at 35° C. Dicamba concentrations in the solution were measured during the course of the photolysis.
A sample of the initial solution was reserved in a glass vial away from the light source and analyzed at the conclusion of the study, providing a measurement of the amount of dicamba present without illumination of the photolysis solution (the “dark control”).

velvetleaf [2] = assay: Greenhouse post-emergent control of velvetleaf by emulsifiable concentrates (Example 29); format: in vivo; conditions: three weeks after treatment
Description: The efficacy of some photo-labile ester formulations from Example 28 for post-emergent control of velvetleaf was tested in the greenhouse. All formulations were tested at rates of 140, 280, 420, and 560 g dicamba equivalent per hectare rates and compared to the diglycolamine salt of dicamba (CLARITY®) at the same rates and untreated control plants. The velvetleaf plants were 10-15 cm in height at the time of spraying. Percent control was evaluated three weeks after treatment.

[3] = test system: glyphosate-tolerant, dicamba-sensitive soy plants; assay: Humidome volatility injury to dicamba-sensitive plants (Example 31); conditions: assessed after three weeks in greenhouse
Excerpt: In this case, the diglycolamine salt of dicamba (CLARITY®) was used for comparison.
Dicamba photo-labile ester formulations from Example 28 were mixed with a commercial glyphosate formulation (ROUNDUP POWERMAX®) and diluted to provide a solution with a 0.5% dicamba equivalent concentrate of the ester (or dicamba diglycolamine salt) and 1.5% concentrate of glyphosate. The mixtures were sprayed at a 10 gallon per acre (93.5 liters per hectare) rate on soil in a plastic container (“humidome”) with a transparent lid. One soil container was sprayed with water as a control. Four glyphosate-tolerant, dicamba-sensitive soy plants between V2 and V3 stage were immediately placed on the sprayed soil and the domes attached to the trays with binder clips. The soy plants were in pots placed directly on the soil but with aluminum foil wrapped around the bottom to prevent uptake of dicamba or dicamba esters through the roots.
The closed containers were held for 24 hours in a growth chamber which was maintained at 35° C. with 40% relative humidity. The plants were then removed and grown in a greenhouse for three weeks. At this time plant injury and growth stage were assessed compared to the control treated with water only.

[4] = In vitro photo-release and hydrolytic release of dicamba in an aqueous medium (Example 35); format: physicochemical; conditions: 0.01 mM ester, 35° C.
Description: This Example describes the determination of photo-lability and hydrolytic lability of dicamba esters in an aqueous medium. 1 mM solutions of the esters were prepared in acetonitrile (or […] solutions of dicamba diesters). The solutions were then diluted with deionized water to a concentration of 0.01 mM (or 0.005 mM for diesters). The solutions were then transferred to quartz tubes and amber bottles and held in a growth chamber by the procedure of Example 26. A 14-hour day was generally used at a constant temperature of 35° C. Hydrolytic activity was assessed by measuring the increase in dicamba concentration after day zero in the amber (dark) bottles. […] Photolysis manifested itself as increased conversion in the quartz tubes compared to the dark control.

hemp sesbania = assay: Field testing of emulsifiable concentrates, post-emergent control (Example 38); format: in vivo
Excerpt: (§1) Four dicamba esters, 1a, 2, 9, and 13a, were formulated as emulsifiable concentrates for field testing. All formulations contained 5% each of a alkylbenzene sulfonate calcium salt (Huntsman NANSA EVM 62/H or Akzo Nobel WITCONATE P-1220 EH) and castor oil ethoxylate (Huntsman SURFONIC CO-54) as the emulsifiers and Aromatic 200 (Exxon) or monochlorobenzene (MCB) as the solvent.
(§2) The esters were compared to the diglycolamine salt of dicamba (CLARITY™) for post-emergent control of three broadleaf weeds: velvetleaf, morning glory, and hemp sesbania. Rates of 280 and 420 g dicamba acid equivalent per hectare were used. […] Evaluations were conducted at 11 or 21 days after treatment. Locations and timing were identical for all formulations tested.

morning glory = assay: as above; format: in vivo
Excerpt: as §1, §2

velvetleaf [5] = assay: as above; format: in vivo
Excerpt: as §1, §2

broadleaf weeds = assay: Control of broadleaf weeds by ester concentrates (statements of the description); format: in vivo
[6] = 280 and 420 g dicamba acid equivalent per hectare
[7] = 280 g dicamba acid equivalent per hectare, 11 or 21 days after treatment
[8] = 420 g dicamba acid equivalent per hectare, 11 or 21 days after treatment

Compound: COc1c(Cl)ccc(Cl)c1C(=O)OCCc1ccccc1[N+](=O)[O-] [Ester 2, 2-Nitrophenethyl Ester of Dicamba]
- Dark Control % dicamba ([1]; initial solution kept away from the light source, analyzed at conclusion of study): 0%
- Conversion to dicamba, 1 day ([1]; simulated sunlight 14 hours per day, 35° C., 1 day): 46%
- Conversion to dicamba, 2 days ([1]; simulated sunlight 14 hours per day, 35° C., 2 days): 54%
- Conversion to dicamba, 3 days ([1]; simulated sunlight 14 hours per day, 35° C., 3 days): 72%
- Conversion to dicamba, 5 days ([1]; simulated sunlight 14 hours per day, 35° C., 5 days): 84%
- Conversion to dicamba, 7 days ([1]; simulated sunlight 14 hours per day, 35° C., 7 days): 88%
- Conversion to dicamba, 9 days ([1]; simulated sunlight 14 hours per day, 35° C., 9 days): 98%
- Conversion to dicamba, 12 days ([1]; simulated sunlight 14 hours per day, 35° C., 12 days): 96%
- Conversion to dicamba, 15 days ([1]; simulated sunlight 14 hours per day, 35° C., 15 days): 95%
- % Control of velvetleaf, 140 g/ha (velvetleaf [2]; 140 g dicamba equivalent per hectare): 50%
- % Control of velvetleaf, 280 g/ha (velvetleaf [2]; 280 g dicamba equivalent per hectare): 69%
- % Control of velvetleaf, 420 g/ha (velvetleaf [2]; 420 g dicamba equivalent per hectare): 78%
- % Control of velvetleaf, 560 g/ha (velvetleaf [2]; 560 g dicamba equivalent per hectare): 90%
- % Injury ([3]; soy plants 24 hours in closed humidome over sprayed soil (0.5% dicamba equivalent + 1.5% glyphosate), 35° C.): 13%
- Growth Stage ([3]; soy plants 24 hours in closed humidome over sprayed soil): 9
- Conversion to Dicamba, Dark, Day 0 ([4]; amber (dark) bottle, Day 0): 3%
- Conversion to Dicamba, Dark, Day 1 ([4]; amber (dark) bottle, Day 1): 3%
- Conversion to Dicamba, Dark, Day 2 ([4]; amber (dark) bottle, Day 2): 3%
- Conversion to Dicamba, Dark, Day 3 ([4]; amber (dark) bottle, Day 3): 3%
- Conversion to Dicamba, Dark, Day 4 ([4]; amber (dark) bottle, Day 4): 3%
- Conversion to Dicamba, Dark, Day 7 ([4]; amber (dark) bottle, Day 7): 3%
- Conversion to dicamba, Dark, Day 10 ([4]; amber (dark) bottle, Day 10): 3%
- Conversion to Dicamba, Dark, Day 14 ([4]; amber (dark) bottle, Day 14): 3%
- Conversion to Dicamba, Dark, Day 21 ([4]; amber (dark) bottle, Day 21): 3%
- Conversion to Dicamba, Dark, Day 28 ([4]; amber (dark) bottle, Day 28): 3%
- Conversion to Dicamba, Light, Day 0 ([4]; quartz tube, 14-hour day, Day 0): 3%
- Conversion to Dicamba, Light, Day 1 ([4]; quartz tube, 14-hour day, Day 1): 78%
- Conversion to Dicamba, Light, Day 2 ([4]; quartz tube, 14-hour day, Day 2): 79%
- Conversion to Dicamba, Light, Day 3 ([4]; quartz tube, 14-hour day, Day 3): 75%
- Conversion to Dicamba, Light, Day 4 ([4]; quartz tube, 14-hour day, Day 4): 77%
- Conversion to Dicamba, Light, Day 7 ([4]; quartz tube, 14-hour day, Day 7): 78%
- Conversion to dicamba, Light, Day 10 ([4]; quartz tube, 14-hour day, Day 10): 84%
- Conversion to Dicamba, Light, Day 14 ([4]; quartz tube, 14-hour day, Day 14): 82%
- Conversion to Dicamba, Light, Day 21 ([4]; quartz tube, 14-hour day, Day 21): 83%
- Conversion to Dicamba, Light, Day 28 ([4]; quartz tube, 14-hour day, Day 28): 86%
- post-emergent control of hemp sesbania compared with the dicamba salt, in words (hemp sesbania; [6]): equivalent to the dicamba salt
- % control, 280 g/ha, Hemp sesbania (hemp sesbania; [7]): 92%
- % control, 420 g/ha, Hemp sesbania (hemp sesbania; [8]): 97%
- post-emergent control of morning glory compared with the dicamba salt, in words (morning glory; [6]): equivalent to the dicamba salt
- % control, 280 g/ha, Morning glory (morning glory; [7]): 94%
- % control, 420 g/ha, Morning glory (morning glory; [8]): 95%
- post-emergent control of velvetleaf compared with the dicamba salt, in words (velvetleaf [5]; [6]): equivalent to the dicamba salt
- % control, 280 g/ha, Velvetleaf (velvetleaf [5]; [7]): 85%
- % control, 420 g/ha, Velvetleaf (velvetleaf [5]; [8]): 92%
- control of a number of broadleaf weeds in field testing, in words (broadleaf weeds; emulsifiable and suspension concentrates, Sesbania macrocarpa, morning glory, velvetleaf, Palmer amaranth, fat hen, sicklepod): proven effective
- field efficacy for control of broadleaf weeds compared with the diglycolamine salt of dicamba, in words (broadleaf weeds; field tests of emulsifiable concentrates): slightly more effective than the diglycolamine salt of dicamba
